Test system: embryoid body containing mixture of cardiomyocytes and non-cardiomyocytes
Experiment: Sarcomeric α-actinin-positive cell rate by flow cytometer after treatment of embryoid body with compound
Type: cell-based, human
Conditions: Experimental Example 4; clinical iPS cell line; embryoid body treated from day 20 for 4 days; FK-228 1-30 nM, Entinostat 0.1-10 μM
Method: On day 20, the embryoid body was recovered in a centrifugal tube, stood until a sediment of the embryoid body was formed, and the supernatant was aspirated while avoiding sucking the embryoid body. The medium was changed with a fresh 13 medium (same medium for myocardial differentiation as in Experimental Example 1), and divided into a 6-well plate with a medium amount of 3 mL/well so that an equal amount of the embryoid body would be placed in each well. Thereafter, an evaluation compound (1 nM to 10 μM) described in Table 1 or DMSO (0.1%) was added. […] It was centrifuged at 500 g for 1 min. The supernatant was removed, a solution of 500 μL of IMDM added with DNase 10 μg/mL and Liberase 100 μg/mL was added per one tube, and the mixture was stood at 37° C. under general oxygen conditions for 1 hr. […] The fixed cells were stained with an anti-sarcomeric α-actinin antibody, and the expression of sarcomeric α-actinin was analyzed with a flow cytometer. […]
On day 20, the embryoid body was recovered in a centrifugal tube, stood until a sediment of the embryoid body was formed, and the supernatant was aspirated while avoiding sucking the embryoid body. […] The fixed cells were stained with an anti-sarcomeric α-actinin antibody, and the sarcomeric α-actinin-positive cell rate was measured by analyzing the expression of sarcomeric α-actinin with a flow cytometer. […]

Nc1ccccc1NC(=O)c1ccc(CNC(=O)OCc2cccnc2)cc1 [Entinostat]
cardiomyocyte rate (sarcomeric α-actinin-positive cell rate): improved

— patent US20230212519A1, “METHOD FOR PURIFYING CARDIOMYOCYTES” (ORIZURU THERAPEUTICS, INC., priority 2020, published 2023)
